Patent US5416081A, “Cephalosporin compounds” (Lucky Limited, priority 1992, dated 1995)
≈ marks a conversion by molar mass, not a printed value. Read-outs that look alike come from different tables or passages of the source.

Legend:
Assay type in all cases: cell-based
E. cloacae/1194E = experiment: MIC against standard strain by two-fold agar dilution, E. cloacae/1194E; settings: Enterobacter cloacae; E. cloacae/1194E; Muller-Hinton agar, 37° C., 20 hours; read-out: MIC
Description: (§1) These MIC values were taken by employing a two-fold dilution method: that is, two-fold serial dilutions of each of the test compounds were made and dispersed in a Muller-Hinton agar medium; 2 μl of the standard test strain which had the 10^7 CFU(Colony Forming Unit) per ml was inoculated on the medium; and these were incubated at 37° C. for 20 hours.

E. coli/3190Y = experiment: MIC against standard strain by two-fold agar dilution, E. coli/3190Y; settings: Escherichia coli; E. coli/3190Y; Muller-Hinton agar, 37° C., 20 hours; read-out: MIC
Description: as §1

S. typhimunium/14028A = experiment: MIC against standard strain by two-fold agar dilution, S. typhimunium/14028A; settings: S. typhimunium/14028A; Muller-Hinton agar, 37° C., 20 hours; read-out: MIC
Description: as §1

E. coli/10536 = experiment: MIC against standard strain by two-fold agar dilution, E. coli/10536; settings: Escherichia coli
Description: as §1

E. coli TEM1/1193E = experiment: MIC against standard strain by two-fold agar dilution, E. coli TEM1/1193E; settings: Escherichia coli, 20 h
Description: as §1

P. aeruginosa/1912E = experiment: MIC against standard strain by two-fold agar dilution, P. aeruginosa/1912E; settings: Pseudomonas aeruginosa; P. aeruginosa/1912E; Muller-Hinton agar, 37° C., 20 hours; read-out: MIC
Description: as §1

P. aeruginosa/6065Y = experiment: MIC against standard strain by two-fold agar dilution, P. aeruginosa/6065Y; settings: Pseudomonas aeruginosa; P. aeruginosa/6065Y; Muller-Hinton agar, 37° C., 20 hours; read-out: MIC
Description: as §1

P. aeruginosa/10145 = experiment: MIC against standard strain by two-fold agar dilution, P. aeruginosa/10145; settings: Pseudomonas aeruginosa; P. aeruginosa/10145; Muller-Hinton agar, 37° C., 20 hours; read-out: MIC
Description: as §1

S. marcescens/1826E = experiment: MIC against standard strain by two-fold agar dilution, S. marcescens/1826E; settings: Serratia marcescens; S. marcescens/1826E; Muller-Hinton agar, 37° C., 20 hours; read-out: MIC
Description: as §1

S. aureus/77 = experiment: MIC against standard strain by two-fold agar dilution, S. aureus/77; settings: Staphylococcus aureus; S. aureus/77; Muller-Hinton agar, 37° C., 20 hours; read-out: MIC
Description: as §1

S. aureus/giorigio = experiment: MIC against standard strain by two-fold agar dilution, S. aureus/giorigio; settings: Staphylococcus aureus
Description: as §1

E. coli TEM5/3739E = experiment: MIC against standard strain by two-fold agar dilution, E. coli TEM5/3739E; settings: Escherichia coli, 20 h
Description: as §1

E. coli TEM9/2639E = experiment: MIC against standard strain by two-fold agar dilution, E. coli TEM9/2639E; settings: Escherichia coli, 20 h
Description: as §1

K. aerogenes/1776E = experiment: MIC against standard strain by two-fold agar dilution, K. aerogenes/1776E; settings: Klebsiella aerogenes; K. aerogenes/1776E; Muller-Hinton agar, 37° C., 20 hours; read-out: MIC
Description: as §1

S. aureus/6538pA = experiment: MIC against standard strain by two-fold agar dilution, S. aureus/6538pA; settings: Staphylococcus aureus
Description: as §1

A. calcoaceticus /15473A = experiment: MIC against standard strain by two-fold agar dilution, A. calcoaceticus /15473A; settings: Acinetobacter calcoaceticus; A. calcoaceticus /15473A; Muller-Hinton agar, 37° C., 20 hours; read-out: MIC
Description: as §1

[1] = E. coli/10536, Muller-Hinton agar, 37° C., 20 hours, read-out: MIC
[2] = S. aureus/giorigio, Muller-Hinton agar, 37° C., 20 hours, read-out: MIC
[3] = S. aureus/6538pA, Muller-Hinton agar, 37° C., 20 hours, read-out: MIC

Row | Compound | MIC (E. cloacae/1194E) [µg/mL] | MIC (E. coli/3190Y) [µg/mL] | MIC (S. typhimunium/14028A) [µg/mL] | MIC (E. coli/10536; [1]) [µg/mL] | MIC (E. coli TEM1/1193E) [µg/mL] | MIC (P. aeruginosa/1912E) [µg/mL] | MIC (P. aeruginosa/6065Y) [µg/mL] | MIC (P. aeruginosa/10145) [µg/mL] | MIC (S. marcescens/1826E) [µg/mL] | MIC (S. aureus/77) [µg/mL] | MIC (S. aureus/giorigio; [2]) [µg/mL] | MIC (E. coli TEM5/3739E) [µg/mL] | MIC (E. coli TEM9/2639E) [µg/mL] | MIC (K. aerogenes/1776E) [µg/mL] | MIC (S. aureus/6538pA; [3]) [µg/mL] | MIC (A. calcoaceticus /15473A) [µg/mL] | MIC (E. coli/10536; 20 h) [µg/mL] | MIC (S. aureus/giorigio; 20 h) [µg/mL] | MIC (S. aureus/6538pA; 20 h) [µg/mL]
1 | Nc1nc(/C(=N/OCC(=O)O)C(=O)NC2C(=O)N3C(C(=O)[O-])=C(CSc4nc(N)c5c([n+]4N)CCC5)CSC23)cs1 (stereo not shown) [Compound I-8, 7-[(Z)-2-(2-aminothiazol-4-yl)-2-(1-carboxymeth-1-oxyimino)acetamido]-3-(1,4-diamino-1,5,6,7-tetrahydro-cyclopentapyrimidinium-2-yl)thiomethyl-3-cephem-4-carboxylate] | 8 (≈ 12.9 µM) | 0.063 (≈ 0.101 µM) | 0.25 (≈ 0.402 µM) | 0.016 (≈ 0.0257 µM) | 0.28 (≈ 0.45 µM) | 1 (≈ 1.61 µM) | 4 (≈ 6.43 µM) | 1 (≈ 1.61 µM) | 0.13 (≈ 0.209 µM) | 4 (≈ 6.43 µM) | 2 (≈ 3.22 µM) | 2 (≈ 3.22 µM) | 2 (≈ 3.22 µM) | 0.25 (≈ 0.402 µM) | 2 (≈ 3.22 µM) | 4 (≈ 6.43 µM) | – | – | –
2 | C[C@H](O/N=C(\C(=O)NC1C(=O)N2C(C(=O)[O-])=C(CSc3nc(N)c4c([n+]3C)CCC4)CSC12)c1csc(N)n1)C(=O)O (stereo partly drawn) [I-6(S)] | 4 (≈ 6.3 µM) | 0.063 (≈ 0.0993 µM) | 0.25 (≈ 0.394 µM) | 0.016 (≈ 0.0252 µM) | 0.13 (≈ 0.205 µM) | 1 (≈ 1.58 µM) | 4 (≈ 6.3 µM) | 2 (≈ 3.15 µM) | 0.25 (≈ 0.394 µM) | 4 (≈ 6.3 µM) | 2 (≈ 3.15 µM) | 1 (≈ 1.58 µM) | 4 (≈ 6.3 µM) | 0.13 (≈ 0.205 µM) | 4 (≈ 6.3 µM) | 4 (≈ 6.3 µM) | – | – | –
3 | CC(C)(O/N=C(\C(=O)NC1C(=O)N2C(C(=O)[O-])=C(CSc3nc(N)c4c([n+]3N)CCC4)CSC12)c1csc(N)n1)C(=O)O (stereo not shown) [Compound I-1, 7-[(Z)-2-(2-aminothiazol-4-yl)-2-(2-carboxyprop-2-oxyimino)acetamido]-3-(1,4-diamino-1,5,6,7-tetrahydro-cyclopentapyrimidinium-2-yl)thiomethyl-3-cephem-4-carboxylate] | 4 (≈ 6.16 µM) | 0.016 (≈ 0.0246 µM) | 0.13 (≈ 0.2 µM) | – | 0.063 (≈ 0.097 µM) | 0.5 (≈ 0.77 µM) | 4 (≈ 6.16 µM) | 1 (≈ 1.54 µM) | 0.25 (≈ 0.385 µM) | 4 (≈ 6.16 µM) | – | 0.25 (≈ 0.385 µM) | 2 (≈ 3.08 µM) | 0.13 (≈ 0.2 µM) | – | 2 (≈ 3.08 µM) | 0.063 (≈ 0.097 µM) | 1 (≈ 1.54 µM) | 2 (≈ 3.08 µM)
4 | Nc1nc(/C(=N/OC2(C(=O)O)CCCC2)C(=O)NC2C(=O)N3C(C(=O)[O-])=C(CSc4nc(N)c5c([n+]4N)CCC5)CSC23)cs1 (stereo not shown) [Compound I-11, 7-[(Z)-2-(2-aminothiazol-4-yl)-2-(1-carboxycyclopent-1-oxyimino)acetamido]-3-(1,4-diamino-1,5,6,7-tetrahydro-cyclopentapyrimidinium-2-yl)thiomethyl-3-cephem-4-carboxylate] | 4 (≈ 5.92 µM) | ≤ 0.008 | 0.25 (≈ 0.37 µM) | 0.016 (≈ 0.0237 µM) | 0.13 (≈ 0.192 µM) | 0.5 (≈ 0.74 µM) | 8 (≈ 11.8 µM) | 1 (≈ 1.48 µM) | 0.25 (≈ 0.37 µM) | 16 (≈ 23.7 µM) | 1 (≈ 1.48 µM) | 0.25 (≈ 0.37 µM) | 2 (≈ 2.96 µM) | 0.13 (≈ 0.192 µM) | 2 (≈ 2.96 µM) | 1 (≈ 1.48 µM) | – | – | –
